Series [1] relates to MHV-1. In words: Syncytium formation in DBT cells infected with MHV-1 (microscopy images). The class given is cell-based, murine hepatitis virus. The settings on record: for inhibitory effect on syncytium formation and fusion / inhibitory effect on syncytium formation and cell-cell fusion: DBT cells pre-treated three hours, 893 10 μM, images at 48 hours; for inhibitory effect on syncytium formation and fusion: YM201636 400 nM, apilimod 50 nM; for inhibitory effect on syncytium formation and cell-cell fusion: NAV2729 5 μM, SecinH3 30 μM; for syncytium formation induced by MHV-1: DBT cells, 4 μM.

For series [2], the system named is MHV-1. In words: Viral titer by plaque assay, DBT cells infected with MHV-1. The class given is cell-based, murine hepatitis virus.
Series [3] can be described thus: in vivo. To be noted: po.
Series [4] concerns MHV-A59. The class given is cell-based, murine hepatitis virus. The settings on record: DBT cells, MOI 0.1, plaque assay at 24 or 48 hours.
Series [5] concerns MHV-1. Kind of series: MHV-1 intranasal infection of male A/J mice, lung viral titer and lung weight. To be noted: 120 mg/kg by gavage 6 hours prior to and 18 hours after infection, 500 pfu MHV-1 intranasally, 24 hours post-infection.
A short description of series [6]: Serum protein binding. The class given is in vitro ADME.
The conditions of series [7]: in vivo.
Series [8] in a line: Resistance to metabolism.
In series [9] the test system is endolysosomal trafficking. Kind of series: Inhibition of endolysosomal trafficking in vitro. The class given is cell-based.
The test system of series [10] is MHV-A59. In words: Syncytium formation in DBT cells infected with MHV-A59 (phase contrast microscopy). The class given is cell-based, murine hepatitis virus. To be noted: 4 μM, MOI 0.1, 24 hours post infection. The protocol: To determine whether PP2A activation mitigates syncytium formation induced by coronaviruses, DBT cells were treated with 4 μM of compound 893 before or after infection with MHV-A59 at a multiplicity of infection (MOI) of 0.1 and then assessed for syncytium formation via phase contrast microscopy 24 hours post infection.

The nature of series [11]: Pharmacokinetics and tissue levels upon oral administration.
Series [12] deals with ACE2 receptor. The class given is cell-based. The settings on record: pre-treated VeroE6 cells.
[13] abbreviates: DBT cells pre-treated three hours, 893 10 μM, NAV2729 5 μM, SecinH3 30 μM, plaque assay 48 hours post infection.
Where [14] appears, read: after viral infection (post-treatment).

What is called half-life is the time in which the quantity being followed falls by half. Read a low half-life as fast loss.

Like-named read-outs stand apart in the source and are kept apart here.

Regarding `Cc1cccc(/C=N/Nc2cc(N3CCOCC3)nc(OCCc3ccccn3)n2)c1` [apilimod], in [1], the “inhibitory effect on syncytium formation and fusion” value is “inhibitory effect”.
Turning to `OCCN1CCN(CCCN2c3ccccc3Sc3ccc(Cl)cc32)CC1` [PPZ, perphenazine, reference compound], in [2] (DBT cells, pretreatment with PP2A agonist), the “reduction of viral titers of MHV-1” value was “to a degree similar to that of compound 893”. In addition, in [1] (DBT cells infected with MHV-1, pretreatment with PP2A agonist), the “syncytium formation and fusion” value was “as efficiently as compound 893”.
For the molecule NAV2729 [reference compound], the “reduction of viral titers of MHV-1” value in series [2] (setting [13]) is given as “about 1 log”. For the same molecule, the “inhibitory effect on syncytium formation and cell-cell fusion” value in series [1] was “inhibitory effect”.
Take `CCCCCCCCc1ccc([C@H]2CCN[C@@H]2CO)cc1.Cl` [compound 893]: the “reduction of viral titers of MHV-1” value in [2] (setting [13]) was ~3 log; in series [2] (DBT cells pre-treated three hours, 893 10 μM, YM201636 400 nM, apilimod 50 nM, plaque assay 48 hours post infection), ~3 logs; in [2] (DBT cells, 4-5 μM added one hour after infection, MOI 0.1, plaque assay at 24 or 48 hours) it was 3-4 logs; in series [2] (DBT cells, 4-5 μM for three hours prior to infection, MOI 0.1, washed 1 hour after infection, plaque assay at 24 or 48 hours), 3-4 logs. This molecule also showed a half-life in series [3] of 10.6 h. In addition, the “reduction of viral titers of MHV-A59” value in [4] (4-5 μM added one hour after infection) is given as 3-4 logs; in series [4] (4-5 μM for three hours prior to infection, washed 1 hour after infection), 3-4 logs. Also, in series [5], the lung weight result was “reduced lung weight”. Further, the “reduction in infectious virus within the lungs” value in [5] worked out at 2 log. In addition, the “binding by serum proteins” value in [6] was “highly bound by serum proteins”. In addition, the oral bioavailability entry in [7] is “orally bioavailable”. Further, the resistance to metabolism result in series [8] was “resistant to metabolism”. The “concentration required to inhibit endolysosomal trafficking” value in series [9] was in the range of 1 to 10 µM. Further, the “syncytium formation induced by MHV-A59” value in [10] (setting [14]) and in [10] (pre-treatment) was “potently prevented syncytium formation” throughout. In addition, in series [1], the “inhibitory effect on syncytium formation and cell-cell fusion” value is listed as “inhibitory effect”. The “inhibitory effect on syncytium formation and fusion” value in series [1] is recorded as “greater for 893 than for YM201636 or apilimod”. For the same molecule, the “syncytium formation induced by MHV-1” value in series [1] (setting [14]) and in series [1] (pre-treatment) was “potently prevented syncytium formation” throughout. Besides, the “total drug levels in the lungs relative to concentration required in vitro” value in [11] (compared with 1-10 μM required in vitro) is reported as 300 fold. In addition, the concentration at 5 days in series [11] (lungs, brain, liver (many tissues), po, 120 mg/kg) is > 100 µM. Further, the “ACE2 receptor localization at the outer cell membrane” value in series [12] is listed as “reduction of ACE2 receptor localization at the outer cell membrane”.
In the case of `COc1nc(-c2ccc3c(c2)OCO3)n(-c2ccc(NC(=O)CSc3ccccc3)cc2)n1` [SecinH3, reference compound], the “reduction of viral titers of MHV-1” value in [2] (setting [13]) is given as “about 1 log”. Besides, the “inhibitory effect on syncytium formation and cell-cell fusion” value in series [1] was “inhibitory effect”.
As for `Nc1ccc(C(=O)Nc2cccc(-c3nc(N4CCOCC4)c4oc5ncccc5c4n3)c2)cn1` [YM201636], in [1], the “inhibitory effect on syncytium formation and fusion” value is reported as “inhibitory effect”.

These data come from patent publication US20240066006A1, “Antiviral Compounds and Applications Thereof” (priority 2020, published 2024).
